Experimental data from BindingDB's records for doi:10.1021/jm030336u (University of Tennessee At Memphis, 2004).

molecular target: T1, Androgen receptor (Rattus norvegicus, UniProt P15207); assay: Competitive Radioligand Displacement Assay; conditions: pH 7.4; 4 °C
T1 sequence (P15207 whole entry): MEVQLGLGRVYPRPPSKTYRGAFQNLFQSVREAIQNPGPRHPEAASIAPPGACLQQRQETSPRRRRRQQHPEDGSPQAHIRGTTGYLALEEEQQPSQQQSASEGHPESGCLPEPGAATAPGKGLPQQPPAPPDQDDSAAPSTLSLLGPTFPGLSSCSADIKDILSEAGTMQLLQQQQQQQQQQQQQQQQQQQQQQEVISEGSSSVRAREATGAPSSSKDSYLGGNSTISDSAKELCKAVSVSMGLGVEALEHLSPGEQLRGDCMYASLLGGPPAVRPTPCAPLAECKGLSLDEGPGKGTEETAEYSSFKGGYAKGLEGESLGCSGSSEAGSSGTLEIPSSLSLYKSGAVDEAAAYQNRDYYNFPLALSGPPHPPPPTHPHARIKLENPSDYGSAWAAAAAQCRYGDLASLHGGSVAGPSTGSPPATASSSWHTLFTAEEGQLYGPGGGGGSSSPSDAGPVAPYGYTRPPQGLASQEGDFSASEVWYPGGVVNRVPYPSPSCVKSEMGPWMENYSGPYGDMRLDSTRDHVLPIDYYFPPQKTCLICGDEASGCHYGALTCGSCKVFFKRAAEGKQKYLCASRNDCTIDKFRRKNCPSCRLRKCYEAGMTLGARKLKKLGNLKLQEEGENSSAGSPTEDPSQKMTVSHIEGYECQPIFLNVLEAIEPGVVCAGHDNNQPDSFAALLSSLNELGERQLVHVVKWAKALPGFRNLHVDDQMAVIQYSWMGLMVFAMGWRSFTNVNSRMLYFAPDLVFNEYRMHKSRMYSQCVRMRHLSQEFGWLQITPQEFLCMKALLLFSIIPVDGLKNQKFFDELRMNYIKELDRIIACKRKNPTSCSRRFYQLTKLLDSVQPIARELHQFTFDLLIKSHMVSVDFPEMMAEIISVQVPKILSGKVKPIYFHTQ

SMILES	Ki
CC(=O)Nc1ccc(SC[C@](C)(O)C(=O)Nc2ccc([N+](=O)[O-])c(C(F)(F)F)c2)cc1 [(2R)-3-[(4-acetamidophenyl)sulfanyl]-2-hydroxy-2-methyl-N-[4-nitro-3-(trifluoromethyl)phenyl]propanamide]	4.9 nM
C[C@](O)(COc1ccc(I)cc1)C(=O)Nc1ccc([N+](=O)[O-])c(C(F)(F)F)c1 [(2S)-2-hydroxy-3-(4-iodophenoxy)-2-methyl-N-[4-nitro-3-(trifluoromethyl)phenyl]propanamide]	30 nM
CC(O)(COc1ccc([N-]C#[S+])cc1)C(=O)Nc1ccc([N+](=O)[O-])c(C(F)(F)F)c1 [(2S)-2-hydroxy-3-(4-isothiocyanatophenoxy)-2-methyl-N-[4-nitro-3-(trifluoromethyl)phenyl]propanamide]	4.62 nM
C[C@](O)(COc1ccc(Br)cc1)C(=O)Nc1ccc([N+](=O)[O-])c(C(F)(F)F)c1 [(2S)-3-(4-bromophenoxy)-2-hydroxy-2-methyl-N-[4-nitro-3-(trifluoromethyl)phenyl]propanamide]	11.6 nM
